These results are taken from patent publication US6602676B1, “Testing method” (Milk Development Council, priority 1999, dated 2003).

In this assay the test system is cows with luteal P4 insufficiency. Nature of the assay: Study II: pregnancy rate after P4 supplementation with CIDR on Day 5 post AI in cows with luteal P4 insufficiency. The assay is classed as in vivo, Holstein-Friesian cows. The settings on record: mean milk P4 on Day 5 post AI 1 to 1.99 ng/ml; CIDR inserted Day 5 post AI for seven days. The procedure:
Milk samples for P4 assay and reproductive data were collected from British Friesian and Holstein-Friesian cows in seven commercial herds. The cows were housed in a free-stall system and fed rations to meet their production and maintenance requirements. Data on calving date, parity, AI date and pregnancy were recorded. For the preliminary study, milk samples were collected daily for P4 determination from Day 7 postpartum until 100 days of the next gestation. The sampling protocol for animals in Studies I and II was limited to three milk samples per animal on Days 0, 5 and 24 post AI. […]
Milk P4 concentrations in an un-extracted aliquot of whole milk were measured using either radio immunoassay (RIA) as described by Lamming and Bulman (Lamming, G. E. and D. C. Bulman (1976) Br. Vet. J. 132: 507-517) and Bulman and Lamming (Bulman D. C. and G. E. Lamming (1978) J. Reprod. Fertil. 54: 447-458) or enzyme linked immunosorbent assay (ELISA) kit (Ridgeway Science Ltd., Gloucestershire, UK) as illustrated by Darwash et al. (Darwash A. O et al (1999b) Anim Sci. (in press)). All samples and quality controls (QC) were assayed in duplicate and the mean value of both readings were used to indicate milk P4 concentrations. […]
Following determination of pregnancy, the accuracy of using milk P4 concentrations on Day 24 post AI to predict pregnancy rates was calculated. […]

For the molecule `CC(=O)[C@H]1CC[C@H]2[C@@H]3CCC4=CC(=O)CC[C@]4(C)[C@H]3CC[C@]12C` [P4, progesterone], the “Pregnancy (%), treated” value was 57.9%.
